Results as given in patent US5753661A, “Fused benzo compounds containing a nitrogen heterocycle for the treatment of central nervous system disorders” (priority 1992, dated 1998).

Tests used:
[1] = target: T1, 5-HT1A receptor (Rattus norvegicus, UniProt P19327); assay: Inhibition of 5-MeO-DMT-induced 5-HT syndrome in rats; type: in vivo, rat (male Wistar); design: Male Wistar rats (Mol:Wist) weighing 170-240 g are used; from tissue; host or cells: living male Wistar rat (Mol:Wist) (in vivo, endogenous receptor); conditions: sc, 5-MeO-DMT 5 mg/kg s.c., inhibition of piano playing
T1 sequence (P19327 1-422): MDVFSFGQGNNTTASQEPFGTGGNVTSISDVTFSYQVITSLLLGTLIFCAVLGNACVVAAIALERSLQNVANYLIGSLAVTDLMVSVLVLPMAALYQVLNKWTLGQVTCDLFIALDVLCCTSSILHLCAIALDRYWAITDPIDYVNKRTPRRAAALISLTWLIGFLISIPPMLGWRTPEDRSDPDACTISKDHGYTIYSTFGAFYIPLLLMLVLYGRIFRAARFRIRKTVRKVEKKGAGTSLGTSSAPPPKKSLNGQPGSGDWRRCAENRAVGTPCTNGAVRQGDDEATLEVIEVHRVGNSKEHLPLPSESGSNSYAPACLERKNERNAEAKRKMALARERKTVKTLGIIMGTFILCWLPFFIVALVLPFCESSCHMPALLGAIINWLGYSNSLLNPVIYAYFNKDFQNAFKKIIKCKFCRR
Source text: Inhibition of 5-MeO-DMT-Induced 5-HT Syndrome in Rats
The so-called 5-HT syndrome is a characteristic pattern of behaviours which are induced by 5-HT agonists with effects on 5-HT, possibly 5-HT1A receptors (Smith, L. M. and Peroutka, S. J., Pharmacol. Biochem. & Behaviour, 1986, 24, 1513; Tricklebank, M. et al, Eur. J. Pharmacol. 1985, 117, 15). This test is a test for determining the antagonist effects of a test compound on 5-HT1A receptors in vivo by measuring the ability to inhibit 5-MeO-DMT induced 5-HT syndrome.
Male Wistar rats (Mol:Wist) weighing 170-240 g are used. Test substance is injected s.c. before 5-MeO-DMT 5 mg/kg, s.c. Four rats are used for each dose. A control group pretreated with saline is included each test day. 10, 15 and 20 min later the rats are observed for presence of serotonin (5-HT) syndrome. The following symptoms are recorded: 1) forepaw treading ("piano playing"), 2) head weaving and 3) hindleg abduction. Furthermore, flat motility is scored. Each part of the syndrome is scored as follows: marked effect (score 2), weak syndrome (score 1) and no effect (score 0). The scores of the three observation periods are added. Thus the maximum obtainable score for four rats is 24. The effect of the test substance is expressed as percent inhibition relative to the control group.
The percent inhibition of the piano playing syndrome is used as the response and ED50 value are calculated by log-probit analysis.

[2] = target: T1, 5-HT1A receptor; assay: Inhibition of 3H-8-OH-DPAT binding to serotonin 5-HT1A receptors in rat brain in vitro; design: 5-HT1A receptors in membranes from rat brain minus cerebellum; from tissue; host or cells: rat brain minus cerebellum, membranes; conditions: 3H-8-OH-DPAT 1 nM; membranes from rat brain minus cerebellum; read-out: IC50, 3H 8-OH-DPAT binding
Experimental: Inhibition of ^3 H-8-OH-DPAT Binding to Serotonin 5-HT1A Receptors in Rat Brain in vitro.
By this method the inhibition by drugs of the binding of the 5-HT1A agonist 3H-8-OH-DPAT (1 nM) to 5-HT1A receptors in membranes from rat brain minus cerebellum is determined in vitro . Accordingly, this is a test for affinity for the 5-HT1A receptor. The assay was performed as described by Hyttel et al., Drug Dev. Res. 1988, 15, 389-404.

[3] = target: T1, 5-HT1A receptor; assay: Generalization to the discriminative stimulus properties induced by 8-OH-DPAT in rats (8-OH-DPAT cue, agonism); type: in vivo, rat (male Wistar); design: from tissue; host or cells: living male Wistar rat (in vivo, endogenous receptor); conditions: for ED50: rat, sc, usually 30 or 45 min before test; for agonist activity/efficacy in words, 8-OH-DPAT cue: 8-OH-DPAT cue model, s.c.
Source text: Generalization to the Discriminative Stimulus Properties Induced by 8-OH-DPAT in Rats
This test is used to determine the 5-HT1A receptor agonistic effect of a test compound in vivo. A related method is described by Tricklebank, M. D., supra; Amt, J. Pharmacology & Toxicology, 1989, 64, 165.
The per cent drug responce obtained for each dose of test compound is used to calculate ED50 values by log-probit analysis.

[4] = target: T1, 5-HT1A receptor; assay: Antagonism of the discriminative stimulus properties induced by 8-OH-DPAT in rats (8-OH-DPAT cue); type: in vivo, rat (male Wistar); design: from tissue; host or cells: living male Wistar rat (in vivo, endogenous receptor); conditions: sc, before 8-OH-DPAT 0.4 mg/kg i.p.
Experimental: Antagonism of the Discriminative Stimulus Properties Induced by 8-OH-DPAT in Rats.
This test is used to determine the 5-HT1A receptor antagonistic effect of a test compound in vivo. A related method is described by Tricklebank, M. D., et al, Eur. J. Pharmacol, 1987, 133, 47-56; Amt, J. Pharmacology & Toxicology, 1989, 64, 165.
Male Wistar rats are trained to discriminate between 8-OH-DPAT (0.4 mg/kg, i.p., 15 min pretreatment) and physiological saline in operant chambers equipped with two response levers. Between the levers a dipper is placed, where water rewards (0.1 ml) are presented. The rats are water deprived for at least 24 h and work in a fixed ratio (FR) schedule (final FR=32).
Following 8-OH-DPAT administration, responding is reinforced only on a designated (drug) lever, whereas responding on the opposite lever has no consequences. Following saline administration, responding is reinforced on the lever opposite to the drug lever. Drug and saline trials alternate randomly between days. The level of discrimination accuracy is expressed as the per cent drug responses and is calculated as the number of correct responses ×100 divided by the sum of the correct and incorrect responses before the first reward. The time to the first reward is also recorded as a measure of reaction time. When stable accuracy (mean correct responding=90%; individual rats at least 75% correct responding) is obtained test sessions are included between training days. Test compound is injected s.c. or p.o. at appropriate time before 8-OH-DPAT and the test begins 15 min after 8-OH-DPAT injection. The test trial is terminated when a total of 32 responses are made on either lever or when 20 min have elapsed. No reward is given and the rats have free access to water for 20-30 min after the test. The effects are expressed as per cent inhibition of drug responding. Only results from rats making at least 10 responses on one lever are included in data analysis. Furthermore, only test sessions in which at least half of the rats respond are included.
The per cent inhibition of drug response obtained for each dose of test compound is used to calculate ED50 values by log-probit analysis.

[5] = test system: 5-HT1A; conditions: cited from earlier work

SMILES | ED50 [1] [µmol/kg] | IC50 [2] [µM] | ED50 [3] [µmol/kg] | ED50 [4] [µmol/kg] | agonist activity/efficacy in words, 8-OH-DPAT cue [3] | response, 8-OH-DPAT cue agonism ([3]; at 0.6-2.4 μmol/kg, s.c. (note c)) | response, 8-OH-DPAT cue agonism ([3]; at 0.04-10 μmol/kg, s.c. (note a)) | antidepressant and anxiolytic effects, in words ([5]; Schipper et al, Human Psychopharm., 1991) | 5-HT1A agonist activity, in words [5]
O=C1N(CCN2CCN(c3cccc4c3OCCO4)CC2)CCN1c1ccccc1 [Compound 2c, 1-[2-[4-(1,4-Benzodioxan-5-yl)-1-piperazinyl]ethyl]-3-phenyl-2-imidazolidinone] | 15 | 0.013 | 0.76 | > 2.6 |  |  |  |  | 
CC(C)N1CCN(CCN2CCN(c3cccc4c3OCCO4)CC2)C1=O [Compound 2o, 1-[2-[4-(1,4-Benzodioxan-5-yl)-1-piperazinyl]ethyl]-3-isopropyl-2-imidazolidinone] | 9 | 0.051 | 27 | 23 |  |  |  |  | 
O=C1N(CCCCN2CCN(c3cccc4c3OCCO4)CC2)CCN1C1CCCCC1 [Compound 2e, 1-[4-[4-(1,4-Benzodioxan-5-yl)-1-piperazinyl]-1-butyl]-3-cyclohexyl-2-imidazolidione] | 4.7 | 0.00045 |  | 6.1 | partial agonist | 20-60% |  |  | 
O=C1N(CCCN2CCN(c3cccc4c3OCC4)CC2)CCN1c1ccccc1 [Compound 2g, 1-[3-[4-(2,3-Dihydrobenzofuran-7-yl)-1-piperazinyl]-1-propyl]-3-phenyl-2-imidazolidinone] | 10 | 0.037 | 1.6 | > 11 |  |  |  |  | 
CC(C)S(=O)(=O)CCCN1CCN(c2cccc3c2OCCO3)CC1 [Compound 1e, 1-(1,4-Benzodioxan-5-yl)-4-(3-isopropylsulfonyl-1-propyl)piperazine] | 5.1 | 0.023 |  | > 10 | partial agonist |  | 30-75% |  | 
O=C(NCCN1CCN(c2cccc3c2OCC(CO)O3)CC1)c1ccc(F)cc1 (stereo not shown) [Flesinoxane, 4-fluoro-N-[2-(4-(2-hydroxymethyl-1,4-benzodioxan-5-yl)piperazine-1-yl)ethyl]benzamide, reference compound] | > 44 | 0.004 | 0.38 |  |  |  |  | antidepressant and anxiolytic effects | high efficacy 5-HT1A agonist
O=S(=O)(CCCN1CCN(c2cccc3c2OCCO3)CC1)C1CCCCC1 [Compound 1a, 1-(1,4-Benzodioxan-5-yl)-4-(3-cyclohexylsulfonyl-1-propyl)piperazine] | 2.3 | 0.0026 | 0.034 | > 0.62 |  |  |  |  | 
O=C1N(CCCN2CCN(c3cccc4c3OCCO4)CC2)CCN1c1ccccc1 [Compound 2a, 1-[3-[4-(1,4-Benzodioxan-5-yl)-1-piperazinyl]-1-propyl]-3-phenyl-2-imidazolidinone] | 6.6 | 0.016 | 3.1 | > 11 |  |  |  |  | 
O=C1CC2(CCCC2)CC(=O)N1CCCCN1CCN(c2ncccn2)CC1 [Buspirone, 8-[4-[4-(2-pyrimidyl)-1-piperazinyl]butyl]-8-azaspiro[4,5]decane-7,9-dione] |  |  |  |  |  |  |  |  | 5-HT1A partial agonists
O=C1N(CCN2CCN(c3cccc4c3OCCO4)CC2)CCN1C1CCCC1 [Compound 2b, 1-[2-[4-(1,4-Benzodioxan-5-yl)-1-piperazinyl]ethyl]-3-cyclopentyl-2-imidazolidinone] | 8.9 | 0.018 | > 11 | 2.7 |  |  |  |  | 
